Patent US20210045385A1, “PYRIDAZINONE-SUBSTITUTED KETOXIMES AS HERBICIDES” (FMC Corporation, priority 2018, published 2021)

Legend:
Type in all cases: in vivo
[1] = tested on: Italian ryegrass (Lolium multiflorum); assay: Test A preemergence, visual plant response rating; conditions: for Ryegrass, Italian plant response rating: 125 g ai/ha, preemergence, 0 to 100 scale, 0 no effect, 100 complete control; for Ryegrass, Italian plant response rating (0 to 100 scale): 500 g ai/ha Preemergence, approx. 10 days
Method in brief: (§1)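 Preemergence: seeds in loam/sand blend given directed soil spray of compound in non-phytotoxic solvent with surfactant. Postemergence: plants 2–10 cm, one- to two-leaf stage, sprayed with same formulation. Visual injury rated vs untreated controls after ~10 days in greenhouse, 0 (no effect) to 100 (complete control).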

[2] = tested on: foxtail, giant (giant foxtail, Setaria faberii); assay: Test A preemergence, visual plant response rating; conditions: for Foxtail, Giant plant response rating: 125 g ai/ha, preemergence, 0 to 100 scale, 0 no effect, 100 complete control; for Foxtail, Giant plant response rating (0 to 100 scale): 500 g ai/ha Preemergence, approx. 10 days
Method in brief: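 Ratings 0–100 (100 = complete control), visual, vs untreated controls at ~10 days. Application pre- or postemergence; solvent mixture with surfactant; loam/sand medium.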

[3] = tested on: kochia (Kochia scoparia); assay: Test A preemergence, visual plant response rating; conditions: for Kochia plant response rating: 125 g ai/ha, preemergence, 0 to 100 scale, 0 no effect, 100 complete control; for Kochia plant response rating (0 to 100 scale): 500 g ai/ha Preemergence, approx. 10 days
Method in brief: as §1

[4] = tested on: pigweed (Amaranthus retroflexus); assay: Test A preemergence, visual plant response rating; conditions: for Pigweed plant response rating: 125 g ai/ha, preemergence, 0 to 100 scale, 0 no effect, 100 complete control; for Pigweed plant response rating (0 to 100 scale): 500 g ai/ha Preemergence, approx. 10 days
Method in brief: as §1

[5] = tested on: ragweed (common ragweed, Ambrosia elatior); assay: Test A preemergence, visual plant response rating; conditions: for Ragweed plant response rating: 125 g ai/ha, preemergence, 0 to 100 scale, 0 no effect, 100 complete control; for Ragweed plant response rating (0 to 100 scale): 500 g ai/ha Preemergence, approx. 10 days
Method in brief: as §1

[6] = tested on: barnyardgrass (Echinochloa crus-galli); assay: Test A preemergence, visual plant response rating; conditions: for Barnyardgrass plant response rating: 125 g ai/ha, preemergence, 0 to 100 scale, 0 no effect, 100 complete control; for Barnyardgrass plant response rating (0 to 100 scale): 500 g ai/ha Preemergence, approx. 10 days
Method in brief: as §1

[7] = tested on: ducksalad (Heteranhera limosa); assay: Test B flooded paddy test, visual plant response rating; conditions: 250 g ai/ha, Flood, applied to paddy water, 2-leaf stage, evaluated after 13 to 15 days
Method in brief: (§2)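 Flooded-pot treatment: water 3 cm over the soil, chemical delivered into that water, depth unchanged for the duration. Assessed by eye versus controls following 13–15 greenhouse days; plants were at 2 leaves when dosed.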

[8] = tested on: sedge, umbrella (small-flower umbrella sedge, Cyperus difformis); assay: as above; conditions: 250 g ai/ha, Flood, applied to paddy water, 2-leaf stage, evaluated after 13 to 15 days
Method in brief: as §2

[9] = tested on: barnyardgrass (Echinochloa crus-galli); assay: as above; conditions: 250 g ai/ha, Flood, applied to paddy water, 2-leaf stage, evaluated after 13 to 15 days
Method in brief: as §2

[10] = tested on: rice (Oryza sativa); assay: as above; conditions: 250 g ai/ha, Flood, applied to paddy water, 2-leaf stage, evaluated after 13 to 15 days
Method in brief: as §2

[11] = tested on: corn (Zea mays); assay: Test A postemergence, visual plant response rating; conditions: for Corn plant response rating (0 to 100 scale): 500 g ai/ha, postemergence, 0 is no effect, 100 is complete control; for Corn plant response rating: Postemergence, 125 g ai/ha, 0 to 100 scale (0 no effect, 100 complete control)
Method in brief: as §1

[12] = tested on: Italian ryegrass (Lolium multiflorum); assay: Test A postemergence, visual plant response rating; conditions: for Ryegrass, Italian plant response rating (0 to 100 scale): 500 g ai/ha, postemergence, 0 is no effect, 100 is complete control; for Ryegrass, Italian plant response rating: Postemergence, 125 g ai/ha, 0 to 100 scale (0 no effect, 100 complete control)
Method in brief: as §1

[13] = tested on: foxtail, giant (giant foxtail, Setaria faberii); assay: Test A postemergence, visual plant response rating; conditions: for Foxtail, Giant plant response rating (0 to 100 scale): 500 g ai/ha, postemergence, 0 is no effect, 100 is complete control; for Foxtail, Giant plant response rating: Postemergence, 125 g ai/ha, 0 to 100 scale (0 no effect, 100 complete control)
Method in brief: as §1

[14] = tested on: galium (catchweed bedstraw, Galium aparine); assay: Test A postemergence, visual plant response rating; conditions: for Galium plant response rating (0 to 100 scale): 500 g ai/ha, postemergence, 0 is no effect, 100 is complete control; for Galium plant response rating: Postemergence, 125 g ai/ha, 0 to 100 scale (0 no effect, 100 complete control)
Method in brief: as §1

[15] = tested on: kochia (Kochia scoparia); assay: Test A postemergence, visual plant response rating; conditions: for Kochia plant response rating (0 to 100 scale): 500 g ai/ha, postemergence, 0 is no effect, 100 is complete control; for Kochia plant response rating: Postemergence, 125 g ai/ha, 0 to 100 scale (0 no effect, 100 complete control)
Method in brief: as §1

[16] = tested on: wheat (Triticum aestivum); assay: Test A postemergence, visual plant response rating; conditions: for Wheat plant response rating (0 to 100 scale): 500 g ai/ha, postemergence, 0 is no effect, 100 is complete control; for Wheat plant response rating: Postemergence, 125 g ai/ha, 0 to 100 scale (0 no effect, 100 complete control)
Method in brief: as §1

[17] = tested on: pigweed (Amaranthus retroflexus); assay: Test A postemergence, visual plant response rating; conditions: for Pigweed plant response rating (0 to 100 scale): 500 g ai/ha, postemergence, 0 is no effect, 100 is complete control; for Pigweed plant response rating: Postemergence, 125 g ai/ha, 0 to 100 scale (0 no effect, 100 complete control)
Method in brief: as §1

[18] = tested on: ragweed (common ragweed, Ambrosia elatior); assay: Test A postemergence, visual plant response rating; conditions: for Ragweed plant response rating (0 to 100 scale): 500 g ai/ha, postemergence, 0 is no effect, 100 is complete control; for Ragweed plant response rating: Postemergence, 125 g ai/ha, 0 to 100 scale (0 no effect, 100 complete control)
Method in brief: as §1

[19] = tested on: barnyardgrass (Echinochloa crus-galli); assay: Test A postemergence, visual plant response rating; conditions: for Barnyardgrass plant response rating (0 to 100 scale): 500 g ai/ha, postemergence, 0 is no effect, 100 is complete control; for Barnyardgrass plant response rating: Postemergence, 125 g ai/ha, 0 to 100 scale (0 no effect, 100 complete control)
Method in brief: as §1

[20] = tested on: blackgrass (Alopecurus myosuroides); assay: Test A postemergence, visual plant response rating; conditions: for Blackgrass plant response rating (0 to 100 scale): 500 g ai/ha, postemergence, 0 is no effect, 100 is complete control; for Blackgrass plant response rating: Postemergence, 125 g ai/ha, 0 to 100 scale (0 no effect, 100 complete control)
Method in brief: as §1

SMILES: CCC(=O)Oc1c(C)nn(C)c(=O)c1C(=NOC)c1cccc2ccccc12 [Compound 49]
- Ryegrass, Italian plant response rating [1]: 40
- Ryegrass, Italian plant response rating (0 to 100 scale) [1]: 70
- Foxtail, Giant plant response rating [2]: 50
- Foxtail, Giant plant response rating (0 to 100 scale) [2]: 80
- Kochia plant response rating [3]: 50
- Kochia plant response rating (0 to 100 scale) [3]: 70
- Pigweed plant response rating [4]: 90
- Pigweed plant response rating (0 to 100 scale) [4]: 100
- Ragweed plant response rating [5]: 100
- Ragweed plant response rating (0 to 100 scale) [5]: 100
- Barnyardgrass plant response rating [6]: 30
- Barnyardgrass plant response rating (0 to 100 scale) [6]: 90
- Plant response rating, Ducksalad (0 to 100 scale, 0 is no effect, 100 is complete control) [7]: 0
- Plant response rating, Sedge, Umbrella (0 to 100 scale, 0 is no effect, 100 is complete control) [8]: 0
- Plant response rating, Barnyardgrass (0 to 100 scale, 0 is no effect, 100 is complete control) [9]: 0
- Plant response rating, Rice (0 to 100 scale, 0 is no effect, 100 is complete control) [10]: 0
- Corn plant response rating (0 to 100 scale) [11]: 50
- Corn plant response rating [11]: 0
- Ryegrass, Italian plant response rating (0 to 100 scale) [12]: 80
- Ryegrass, Italian plant response rating [12]: 40
- Foxtail, Giant plant response rating (0 to 100 scale) [13]: 80
- Foxtail, Giant plant response rating [13]: 40
- Galium plant response rating (0 to 100 scale) [14]: 90
- Galium plant response rating [14]: 80
- Kochia plant response rating (0 to 100 scale) [15]: 90
- Kochia plant response rating [15]: 70
- Wheat plant response rating (0 to 100 scale) [16]: 10
- Wheat plant response rating [16]: 0
- Pigweed plant response rating (0 to 100 scale) [17]: 90
- Pigweed plant response rating [17]: 80
- Ragweed plant response rating (0 to 100 scale) [18]: 90
- Ragweed plant response rating [18]: 80
- Barnyardgrass plant response rating (0 to 100 scale) [19]: 50
- Barnyardgrass plant response rating [19]: 20
- Blackgrass plant response rating (0 to 100 scale) [20]: 90
- Blackgrass plant response rating [20]: 70

SMILES: CO/N=C(\c1cccc(C)c1F)c1c(O)c(C)nn(C)c1=O [Compound 50]
- Ryegrass, Italian plant response rating [1]: 30
- Ryegrass, Italian plant response rating (0 to 100 scale) [1]: 30
- Foxtail, Giant plant response rating [2]: 0
- Foxtail, Giant plant response rating (0 to 100 scale) [2]: 40
- Kochia plant response rating [3]: 10
- Kochia plant response rating (0 to 100 scale) [3]: 70
- Pigweed plant response rating [4]: 30
- Pigweed plant response rating (0 to 100 scale) [4]: 90
- Ragweed plant response rating [5]: 50
- Ragweed plant response rating (0 to 100 scale) [5]: 90
- Barnyardgrass plant response rating [6]: 10
- Barnyardgrass plant response rating (0 to 100 scale) [6]: 60
- Plant response rating, Ducksalad (0 to 100 scale, 0 is no effect, 100 is complete control) [7]: 0
- Plant response rating, Sedge, Umbrella (0 to 100 scale, 0 is no effect, 100 is complete control) [8]: 0
- Plant response rating, Barnyardgrass (0 to 100 scale, 0 is no effect, 100 is complete control) [9]: 0
- Plant response rating, Rice (0 to 100 scale, 0 is no effect, 100 is complete control) [10]: 0
- Corn plant response rating (0 to 100 scale) [11]: 0
- Corn plant response rating [11]: 0
- Ryegrass, Italian plant response rating (0 to 100 scale) [12]: 80
- Ryegrass, Italian plant response rating [12]: 20
- Foxtail, Giant plant response rating (0 to 100 scale) [13]: 70
- Foxtail, Giant plant response rating [13]: 20
- Galium plant response rating (0 to 100 scale) [14]: 70
- Galium plant response rating [14]: 70
- Kochia plant response rating (0 to 100 scale) [15]: 80
- Kochia plant response rating [15]: 60
- Wheat plant response rating (0 to 100 scale) [16]: 0
- Wheat plant response rating [16]: 0
- Pigweed plant response rating (0 to 100 scale) [17]: 90
- Pigweed plant response rating [17]: 90
- Ragweed plant response rating (0 to 100 scale) [18]: 80
- Ragweed plant response rating [18]: 70
- Barnyardgrass plant response rating (0 to 100 scale) [19]: 40
- Barnyardgrass plant response rating [19]: 10
- Blackgrass plant response rating (0 to 100 scale) [20]: 30
- Blackgrass plant response rating [20]: 0
